Data on two compounds can be found in PubChem BioAssay AID270 (DTP/NCI, 2004).

Values joined by “and” are separate entries in the source; they are usually repeats but may differ in a detail not shown here. Identical values can stand only once. Inconclusive results are not listed.

The test deals with BDF1 mice, s.c. Lewis lung carcinoma, T/C %. Description: NCI In Vivo Anticancer Drug Screen. Data for tumor model Lewis Lung Carcinoma (subcutaneous) in B6D2F1 (BDF1) mice. The essentials: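 Tumor-bearing mice were treated with test compound, and either survival or tumor size was recorded. Values are the treated-group measurement divided by that of the vehicle-treated control group.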

For the compound `O=c1c(O)c(-c2ccccc2)oc2ccccc12`, the T/C reads like this: (endpoint: mean tumor weight, dose: 0.19 mg/kg/injection, schedule: Q01DX011 (ip), vehicle: saline, higher = larger tumour) 79 % of control; (endpoint: mean tumor weight, dose: 0.39 mg/kg/injection, schedule: Q01DX011 (ip), vehicle: saline, higher = larger tumour) 50 % of control; (endpoint: mean tumor weight, dose: 0.78 mg/kg/injection, schedule: Q01DX011 (ip), vehicle: saline, higher = larger tumour) 105 % of control; (endpoint: mean tumor weight, dose: 1.56 mg/kg/injection, schedule: Q01DX011 (ip), vehicle: saline, higher = larger tumour) 52 % of control and 58 % of control; (endpoint: mean tumor weight, dose: 3.13 mg/kg/injection, schedule: Q01DX011 (ip), vehicle: saline, higher = larger tumour) 78 % of control; (endpoint: mean tumor weight, dose: 6.25 mg/kg/injection, schedule: Q01DX011 (ip), vehicle: saline, higher = larger tumour) 97 % of control. Also, the T/C is, setting by setting: (endpoint: mean tumor weight, dose: 12.5 mg/kg/injection, schedule: Q01DX010 (ip), vehicle: saline, higher = larger tumour) 67 % of control; (endpoint: mean tumor weight, dose: 12.5 mg/kg/injection, schedule: Q01DX011 (ip), vehicle: saline, higher = larger tumour) 103 % of control; (endpoint: mean tumor weight, dose: 25.0 mg/kg/injection, schedule: Q01DX010 (ip), vehicle: saline, higher = larger tumour) 82 % of control; (endpoint: mean tumor weight, dose: 50.0 mg/kg/injection, schedule: Q01DX010 (ip), vehicle: saline, higher = larger tumour) 104 % of control; (endpoint: mean tumor weight, dose: 100.0 mg/kg/injection, schedule: Q01DX010 (ip), vehicle: saline, higher = larger tumour) 83 % of control.

For `Cc1ccc2c(Nc3ccc(NS(C)(=O)=O)cc3)c3ccccc3nc2c1C`, the T/C is, setting by setting: (endpoint: median survival time, dose: 10.0 mg/kg/injection, schedule: Q01DX009 (ip), vehicle: other, higher = longer survival) 98 % of control; (endpoint: median survival time, dose: 40.0 mg/kg/injection, schedule: Q01DX009 (ip), vehicle: other, higher = longer survival) 124 % of control.
